Data taken from the NIST ThermoML archive (doi:10.1021/acs.jced.7b00363).
Numbers after ± are expanded uncertainties.

Legend:
[1] = Surface laser light scattering (SLLS); for viscosity: Liquid
[2] = wn = mass fraction of the nth substance listed; settings: Surface laser light scattering (SLLS); for viscosity: Liquid

CCCCCCCCCCCC [dodecane]
[1]
Settings | surface tension liquid-gas [mN/m] | viscosity [mPa·s]
323.15 K | 21.64 ± 0.23 | 0.9225 ± 0.025
348.15 K | 19.91 ± 0.3 | 0.6763 ± 0.017
373.15 K | 18.19 ± 0.31 | 0.507 ± 0.013
398.15 K | 16.22 ± 0.14 | 0.4003 ± 0.012
423.15 K | 14.33 ± 0.26 | 0.3223 ± 0.011
448.15 K | 12.38 ± 0.24 | 0.2595 ± 0.01
473.15 K | 10.67 ± 0.08 | 0.2156 ± 0.0094
498.15 K | 8.95 ± 0.16 | 0.1821 ± 0.0092
523.15 K | 7.25 ± 0.08 | 0.1532 ± 0.0089
548.15 K | 5.64 ± 0.07 | 0.1277 ± 0.0087
573.15 K | 4.14 ± 0.07 | 0.1051 ± 0.0086

CCCCCCCCCCCCCCCCCCCCCCCCCCCC [octacosane]
[1]
Settings | surface tension liquid-gas [mN/m] | viscosity [mPa·s]
398.15 K | 21.33 ± 0.69 | 1.814 ± 0.082
423.15 K | 19.53 ± 0.52 | 1.361 ± 0.043
448.15 K | 17.78 ± 0.31 | 1.025 ± 0.025
473.15 K | 16.57 ± 0.48 | 0.8318 ± 0.02
498.15 K | 15.38 ± 0.29 | 0.6847 ± 0.019
523.15 K | 14.18 ± 0.26 | 0.5675 ± 0.017
548.15 K | 12.86 ± 0.18 | 0.4753 ± 0.016
573.15 K | 11.51 ± 0.18 | 0.3995 ± 0.012

CCCCCCCCCCCCCCCCCCCCCCCCCCCC [octacosane] + CCCCCCCCCCCC
[2]
Settings | surface tension liquid-gas [mN/m] | viscosity [mPa·s]
373.15 K, w2 = 0.156 | 21.71 ± 0.57 | 1.944 ± 0.064
398.15 K, w2 = 0.156 | 19.8 ± 0.5 | 1.412 ± 0.043
423.15 K, w2 = 0.156 | 18.5 ± 0.25 | 1.089 ± 0.028
448.15 K, w2 = 0.155 | 17.07 ± 0.24 | 0.8604 ± 0.023
473.15 K, w2 = 0.155 | 15.59 ± 0.21 | 0.6912 ± 0.016
498.15 K, w2 = 0.154 | 14.15 ± 0.19 | 0.5671 ± 0.016
523.15 K, w2 = 0.152 | 12.84 ± 0.23 | 0.4787 ± 0.014
548.15 K, w2 = 0.15 | 11.56 ± 0.16 | 0.4075 ± 0.013
573.15 K, w2 = 0.148 | 10.3 ± 0.19 | 0.3445 ± 0.011
